Calls of active or inactive are those of the source.
Key:
[1] = Luminescence Cell-Based Dose Response to Identify Activators of 5'UTR Stem-Loop Driven Prion Protein mRNA Translation in H4-C Neuroglioblastoma Cells. [Related pubchem assays: 1829 (Project Summary), 1814 (Primary HTS)]; type: functional
[2] = Luminescence Cell-Based Dose Response to Identify Activators of Luciferase Translation or Activity in H4-C Neuroglioblastoma Cells. [Related pubchem assays: 1829 (Project Summary), 1814 (Primary HTS)]; type: functional
[3] = test system: H4; experiment: Luminescence Cell-Based Dose Response HTS to Identify Activators of 5'UTR Stem-Loop Driven Prion Protein mRNA Translation in H4 Neuroglioblastoma Cells. [Related pubchem assays: 1829 (Project Summary), 1814 (Primary HTS)]; type: functional; conditions: Homo sapiens
[4] = Luminescence Cell-Based Dose Response HTS to Identify Activators of Luciferase Translation or Activity in H4 […] Cells. [Related pubchem assays: 1829 (Project Summary), 1814 (Primary HTS)]; type: functional
[5] = test system: Vero; experiment: viability of Vero cells under compound – cytotoxicity control for flavivirus capping enzyme inhibitors (AID 588742); type: functional; conditions: Chlorocebus sabaeus
[6] = Luminescence Cell-Based Dose Confirmation to Identify Activators of 5'UTR Stem-Loop Driven Alpha-Synuclein mRNA Translation in H4 Neuroglioblastoma Cells. [Related pubchem assays: 1829 (Project Summary), 1814 (Primary HTS)]; type: functional
[7] = NIH-3T3 fibroblast cytotoxicity, dose response, cytotoxicity control, cell-based, fluorescence, Alamar Blue, secondary assay (AID 2327); type: functional;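 also: NIH-3T3 mouse fibroblasts cultured with fluconazole at 8 µg/mL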
[8] = fluconazole-exposed Candida albicans growth modulators – fluorescence, retest, confirmation (AID 2467); type: functional, cell-based
[9] = molecular target: Peroxisome proliferator-activated receptor gamma/Nuclear receptor coactivator 2 (Homo sapiens, UniProt P37231); experiment: (§1) TR-FRET dose response biochemical High Throughput Screening assay for agonists of the steroid receptor coactivator 2 (SRC-2) recruitment by the peroxisome proliferator-activated receptor gamma (PPAR gamma): non-selective agonists. [Related pubchem assays: 1297, 1032 ]; type: functional
[10] = molecular target: T1, ORF 73 (Human herpesvirus 8, UniProt O40947); experiment: KSHV LANA DNA-binding disruption – biochemical, fluorescence polarization, cherry-picked samples, dose response (AID 504725); set-up: species or system Human gammaherpesvirus 8;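 also: fluorescence polarization of a labeled DNA duplex reporting LANA DNA binding; potency is for inhibitors that block LANA binding to the DNA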
T1 sequence (O40947 whole entry): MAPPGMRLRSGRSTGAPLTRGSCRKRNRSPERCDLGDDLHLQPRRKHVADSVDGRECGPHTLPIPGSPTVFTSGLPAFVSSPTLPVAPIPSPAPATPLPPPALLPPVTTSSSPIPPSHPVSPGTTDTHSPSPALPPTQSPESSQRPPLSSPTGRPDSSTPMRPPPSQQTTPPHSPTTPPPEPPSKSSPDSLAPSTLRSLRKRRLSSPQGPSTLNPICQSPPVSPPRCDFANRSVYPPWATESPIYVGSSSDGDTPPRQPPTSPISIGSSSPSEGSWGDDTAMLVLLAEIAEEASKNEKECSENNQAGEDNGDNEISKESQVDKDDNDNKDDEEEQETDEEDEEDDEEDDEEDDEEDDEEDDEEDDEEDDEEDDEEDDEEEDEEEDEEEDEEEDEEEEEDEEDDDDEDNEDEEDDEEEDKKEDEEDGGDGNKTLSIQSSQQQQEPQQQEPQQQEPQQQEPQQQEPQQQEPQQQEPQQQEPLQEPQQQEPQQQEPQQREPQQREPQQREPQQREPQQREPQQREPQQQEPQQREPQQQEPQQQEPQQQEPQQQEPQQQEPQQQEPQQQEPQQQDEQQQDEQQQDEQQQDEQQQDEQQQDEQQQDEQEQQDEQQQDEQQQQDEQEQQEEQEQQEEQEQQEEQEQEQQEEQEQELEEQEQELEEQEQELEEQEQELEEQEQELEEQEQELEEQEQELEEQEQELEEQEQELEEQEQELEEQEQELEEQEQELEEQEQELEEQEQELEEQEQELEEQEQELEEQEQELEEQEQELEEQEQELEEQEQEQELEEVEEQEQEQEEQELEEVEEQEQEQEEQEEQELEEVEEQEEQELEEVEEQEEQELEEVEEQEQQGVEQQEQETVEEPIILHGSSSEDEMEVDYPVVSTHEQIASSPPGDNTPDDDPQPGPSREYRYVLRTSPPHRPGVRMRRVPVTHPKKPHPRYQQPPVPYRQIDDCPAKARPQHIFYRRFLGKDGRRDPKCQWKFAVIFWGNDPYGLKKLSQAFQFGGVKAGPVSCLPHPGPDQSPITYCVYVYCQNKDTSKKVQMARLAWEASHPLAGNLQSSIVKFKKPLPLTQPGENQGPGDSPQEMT

[11] = molecular target: Mitogen-activated protein kinase 10 (Homo sapiens, UniProt P53779); experiment: Dose response biochemical screening assay for inhibitors of c-Jun N-Terminal Kinase 3 (JNK3). [Related pubchem assays: 746 ]
[12] = molecular target: T2, Zinc finger protein mex-5 (Caenorhabditis elegans, UniProt Q9XUB2); experiment: potency of MEX-5 RNA-binding blockers – biochemical, C. elegans, fluorescence polarization, dose response (AID 1960)
T2 sequence (Q9XUB2 whole entry): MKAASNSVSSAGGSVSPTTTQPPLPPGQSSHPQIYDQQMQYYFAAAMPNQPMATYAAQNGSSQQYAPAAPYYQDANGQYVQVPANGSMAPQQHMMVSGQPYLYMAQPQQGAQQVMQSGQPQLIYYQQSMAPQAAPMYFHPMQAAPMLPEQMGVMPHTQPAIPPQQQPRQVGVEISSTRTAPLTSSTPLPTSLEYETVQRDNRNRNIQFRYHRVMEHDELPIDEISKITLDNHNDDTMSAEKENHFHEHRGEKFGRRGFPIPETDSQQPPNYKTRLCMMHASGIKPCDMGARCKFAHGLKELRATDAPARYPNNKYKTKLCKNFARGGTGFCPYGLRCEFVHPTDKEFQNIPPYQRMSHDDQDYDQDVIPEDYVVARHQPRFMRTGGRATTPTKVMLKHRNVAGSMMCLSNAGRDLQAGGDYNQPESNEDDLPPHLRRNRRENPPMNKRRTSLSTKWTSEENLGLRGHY

[13] = molecular target: Peroxisome proliferator-activated receptor gamma/Nuclear receptor coactivator 1 (Homo sapiens, UniProt P37231); experiment: as §1, with “1 (SRC-1)” for “2 (SRC-2)”, “assays (depositor defined):AID1300, AID1808, AID504735, AID631]” for “assays: 1297, 1032 ]”; type: protein assay
[14] = molecular target: Peroxisome proliferator-activated receptor gamma/Nuclear receptor coactivator 3 (Homo sapiens, UniProt P37231); experiment: as §1, with “3 (SRC-3)” for “2 (SRC-2)”, “1301 (Confirmation screen.), 1048 (Primary screen.)]” for “1297, 1032 ]”; type: functional
[15] = molecular target: Keap1/Nrf2 (Homo sapiens, UniProt Q14145); experiment: disruptors of Keap1 binding to Nrf2 peptide – biochemical, fluorescence polarization, cherry-picked samples, dose response (AID 588683)
[16] = molecular target: UDP-galactopyranose mutase (Mycobacterium tuberculosis, UniProt P9WIQ1); experiment: Inhibitors of Mycobacterium tuberculosis UDP-galactopyranose mutase (UGM) enzyme Measured in Biochemical System Using Plate Reader - 2105-02_Inhibitor_Dose_CherryPick_Activity. [Related pubchem assays (depositor defined):AID504439]
[17] = test system: HeLa; experiment: viability loss in HeLa cells – cell-based, 24 h, cherry-picked samples, cytotoxicity control, dose response (AID 504726); type: functional; conditions: Homo sapiens;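 also: potency for cytotoxicity as loss of luminescence signal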
[18] = molecular target: T3, RNA-binding protein pos-1 (Caenorhabditis elegans, UniProt G5EF15); experiment: disruptors of C. elegans POS-1 RNA interaction – biochemical, fluorescence polarization, dose response (AID 1964);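 also: purified POS-1 fused to maltose binding protein made in E. coli; potency of compounds blocking POS-1 binding to fluorescent RNA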
T3 sequence (G5EF15 whole entry): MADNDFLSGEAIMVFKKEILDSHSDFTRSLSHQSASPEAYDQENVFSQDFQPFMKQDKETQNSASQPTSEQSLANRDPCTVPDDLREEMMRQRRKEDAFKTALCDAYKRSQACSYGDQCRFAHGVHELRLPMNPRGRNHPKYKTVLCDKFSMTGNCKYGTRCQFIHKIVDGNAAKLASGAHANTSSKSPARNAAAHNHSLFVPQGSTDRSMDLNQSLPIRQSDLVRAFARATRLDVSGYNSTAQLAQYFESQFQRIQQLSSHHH

[19] = molecular target: 14-3-3 protein gamma (Homo sapiens, UniProt P61981); experiment: modulators of 14-3-3 gamma client binding – dose response (AID 711); type: functional
[20] = molecular target: T4, Bcl-2-related protein A1 (Mus musculus, UniProt Q07440); experiment: Bfl-1 binding inhibitors, SAR follow-up, biochemical, fluorescence polarization (AID 1070)
T4 sequence (Q07440 whole entry): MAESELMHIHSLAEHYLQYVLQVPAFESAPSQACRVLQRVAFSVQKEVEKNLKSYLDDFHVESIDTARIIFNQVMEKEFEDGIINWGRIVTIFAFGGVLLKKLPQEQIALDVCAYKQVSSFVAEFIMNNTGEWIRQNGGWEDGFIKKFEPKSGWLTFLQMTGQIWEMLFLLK

[21] = molecular target: T4, Bcl-2-related protein A1; experiment: small-molecule antagonists of Bfl-1/BH3 interaction – biochemical, TR-FRET, mouse Bfl-1, confirmation (AID 621);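 also: TR-FRET binding of GST-Bfl-1 to FITC-labelled Bid peptide via terbium antibody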
[22] = molecular target: T5, Interleukin-8 (Homo sapiens, UniProt P10145); experiment: Dose Response confirmation of uHTS small molecule hits for cystic fibrosis induced NFkb Inhibitors in a TNFa-induced IL8 counterscreen.; type: functional; conditions: read-out: IC50_Mean
T5 sequence (P10145 whole entry): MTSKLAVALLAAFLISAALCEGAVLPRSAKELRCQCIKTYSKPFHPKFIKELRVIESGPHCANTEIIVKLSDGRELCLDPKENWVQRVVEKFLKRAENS

[23] = loss of viability in HepG2 cells – cell-based, CellTiter-Glo, cherry-picked, cytotoxicity control for Shn3 inhibitor project, dose response (AID 624134); type: functional
[24] = test system: INS1; experiment: INS-1E survival protection against cytokine death – cell-based, luminescence, retest, dose response (AID 449756); type: functional; conditions: Rattus norvegicus;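 also: cell death triggered by IL-1 beta plus TNF-alpha plus IFN-gamma mixture; protective hits raise ATP signal compared with cytokine alone wells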
[25] = molecular target: T6, Heat shock factor protein 1 (Mus musculus, UniProt P38532); experiment: enhancement of HSF1-driven luciferase signal – cell-based, NIH3T3, luminescence, dose retest, confirmation (AID 435004); type: functional;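 also: stress induced by proteasome inhibitor MG132 added 30 min after compound; luciferase reporter driven by HSF1 response element in NIH3T3 cells; actives raise luminescence as potentiators of the MG132 stress response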
T6 sequence (P38532 whole entry): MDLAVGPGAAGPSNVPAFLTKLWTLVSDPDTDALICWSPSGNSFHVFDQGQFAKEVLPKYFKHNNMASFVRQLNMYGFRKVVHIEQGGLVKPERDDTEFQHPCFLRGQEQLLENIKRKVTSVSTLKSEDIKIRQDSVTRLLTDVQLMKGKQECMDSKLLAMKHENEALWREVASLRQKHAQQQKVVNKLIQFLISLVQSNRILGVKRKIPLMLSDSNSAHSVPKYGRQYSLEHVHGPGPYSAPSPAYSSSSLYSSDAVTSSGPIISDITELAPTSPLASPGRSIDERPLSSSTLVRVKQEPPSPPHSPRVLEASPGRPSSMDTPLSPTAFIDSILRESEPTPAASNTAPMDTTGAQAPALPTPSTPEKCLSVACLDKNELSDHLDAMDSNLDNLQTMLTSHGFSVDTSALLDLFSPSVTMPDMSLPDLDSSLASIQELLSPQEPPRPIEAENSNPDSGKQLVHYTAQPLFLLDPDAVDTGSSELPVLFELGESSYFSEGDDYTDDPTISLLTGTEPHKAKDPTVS

[26] = reduction of Shn3 3'UTR-driven luciferase in osteoblasts – cell-based, Clone20 osteoblasts, firefly luciferase, cherry-picked, dose response (AID 624132); type: functional;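 also: firefly luciferase luminescence from reporter carrying the Shn3 3'UTR in osteoblasts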
[27] = molecular target: T5, Interleukin-8; experiment: Dose Response confirmation of uHTS small molecule hits for cystic fibrosis induced NFkb Inhibitors in a PAF-induced IL8 counterscreen.; type: functional; conditions: read-out: IC50_Mean
[28] = non-specific 3'UTR reporter inhibition in Clone20-Shn3RL – cell-based, Renilla luciferase, cherry-picked, counter-screen for Shn3 inhibitor project, dose response (AID 624133); type: functional
[29] = test system: Vero; experiment: mammalian cell viability reduction – secondary assay, cytotoxicity control for West Nile virus antiviral project, dose response (AID 1650); type: functional; conditions: Chlorocebus sabaeus

Sequence of UDP-galactopyranose mutase (P9WIQ1 whole entry): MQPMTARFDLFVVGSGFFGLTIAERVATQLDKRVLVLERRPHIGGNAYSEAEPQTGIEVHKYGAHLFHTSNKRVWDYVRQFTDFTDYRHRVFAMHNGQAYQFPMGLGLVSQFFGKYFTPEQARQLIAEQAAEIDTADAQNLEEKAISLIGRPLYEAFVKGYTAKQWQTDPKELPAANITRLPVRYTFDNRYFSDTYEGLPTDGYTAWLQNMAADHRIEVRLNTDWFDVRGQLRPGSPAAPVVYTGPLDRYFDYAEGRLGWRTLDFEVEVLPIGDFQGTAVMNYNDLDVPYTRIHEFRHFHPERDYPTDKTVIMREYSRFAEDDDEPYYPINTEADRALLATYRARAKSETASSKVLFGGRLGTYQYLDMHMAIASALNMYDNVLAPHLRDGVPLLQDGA
Sequence of Peroxisome proliferator-activated receptor gamma/Nuclear receptor coactivator 2 (P37231 whole entry): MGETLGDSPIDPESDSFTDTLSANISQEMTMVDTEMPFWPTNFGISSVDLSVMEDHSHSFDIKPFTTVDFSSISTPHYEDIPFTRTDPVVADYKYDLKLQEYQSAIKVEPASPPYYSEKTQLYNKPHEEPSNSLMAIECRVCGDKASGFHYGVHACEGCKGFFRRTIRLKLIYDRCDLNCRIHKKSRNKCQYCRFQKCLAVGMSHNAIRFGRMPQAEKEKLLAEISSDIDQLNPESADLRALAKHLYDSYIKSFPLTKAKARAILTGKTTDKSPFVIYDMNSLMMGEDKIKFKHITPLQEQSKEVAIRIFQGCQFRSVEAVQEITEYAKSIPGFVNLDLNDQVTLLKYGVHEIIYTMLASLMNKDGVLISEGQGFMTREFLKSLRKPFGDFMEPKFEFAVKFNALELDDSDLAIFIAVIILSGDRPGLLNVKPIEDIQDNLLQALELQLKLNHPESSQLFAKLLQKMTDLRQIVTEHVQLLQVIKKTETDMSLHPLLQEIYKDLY
Sequence of Peroxisome proliferator-activated receptor gamma/Nuclear receptor coactivator 2 (Q15596 whole entry, further chain): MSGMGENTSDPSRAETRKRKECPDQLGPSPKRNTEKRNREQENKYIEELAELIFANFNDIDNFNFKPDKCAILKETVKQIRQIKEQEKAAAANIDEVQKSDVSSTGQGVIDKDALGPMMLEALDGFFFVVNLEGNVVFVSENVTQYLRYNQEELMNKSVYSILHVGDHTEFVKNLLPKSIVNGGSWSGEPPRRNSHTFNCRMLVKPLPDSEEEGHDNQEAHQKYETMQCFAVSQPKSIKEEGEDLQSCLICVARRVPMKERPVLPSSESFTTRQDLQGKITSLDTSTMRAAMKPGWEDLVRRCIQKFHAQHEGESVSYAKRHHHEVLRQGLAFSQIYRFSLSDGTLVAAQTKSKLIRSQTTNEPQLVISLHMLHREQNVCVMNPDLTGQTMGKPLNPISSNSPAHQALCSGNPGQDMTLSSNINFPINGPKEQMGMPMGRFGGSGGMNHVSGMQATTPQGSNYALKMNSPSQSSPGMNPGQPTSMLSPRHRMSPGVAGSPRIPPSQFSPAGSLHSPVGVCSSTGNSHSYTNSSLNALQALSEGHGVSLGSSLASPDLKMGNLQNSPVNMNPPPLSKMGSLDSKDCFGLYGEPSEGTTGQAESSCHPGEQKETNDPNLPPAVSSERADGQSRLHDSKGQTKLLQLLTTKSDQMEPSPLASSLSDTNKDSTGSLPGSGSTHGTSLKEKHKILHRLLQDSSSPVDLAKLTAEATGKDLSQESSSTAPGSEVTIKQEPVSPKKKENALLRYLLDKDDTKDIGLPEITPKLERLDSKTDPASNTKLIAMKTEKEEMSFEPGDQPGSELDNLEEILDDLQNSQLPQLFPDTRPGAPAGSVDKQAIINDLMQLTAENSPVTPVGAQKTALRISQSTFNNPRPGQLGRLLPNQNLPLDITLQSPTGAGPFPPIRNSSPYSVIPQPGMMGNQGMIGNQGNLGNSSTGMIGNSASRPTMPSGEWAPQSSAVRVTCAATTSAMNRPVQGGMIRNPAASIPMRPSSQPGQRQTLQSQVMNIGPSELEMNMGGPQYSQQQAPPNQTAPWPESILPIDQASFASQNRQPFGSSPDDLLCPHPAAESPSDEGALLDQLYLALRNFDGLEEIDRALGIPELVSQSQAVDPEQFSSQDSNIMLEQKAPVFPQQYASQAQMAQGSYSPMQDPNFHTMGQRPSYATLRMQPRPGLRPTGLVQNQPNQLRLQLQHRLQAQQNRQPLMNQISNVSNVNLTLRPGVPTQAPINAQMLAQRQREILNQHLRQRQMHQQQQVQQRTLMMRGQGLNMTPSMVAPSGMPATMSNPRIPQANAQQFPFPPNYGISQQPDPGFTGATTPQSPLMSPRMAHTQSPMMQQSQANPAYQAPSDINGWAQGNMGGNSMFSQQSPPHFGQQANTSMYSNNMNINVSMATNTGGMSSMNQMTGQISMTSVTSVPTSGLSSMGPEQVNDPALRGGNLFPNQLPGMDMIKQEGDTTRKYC
Sequence of Peroxisome proliferator-activated receptor gamma/Nuclear receptor coactivator 3 (P37231 whole entry): as the sequence (P37231 whole entry) above
Sequence of Peroxisome proliferator-activated receptor gamma/Nuclear receptor coactivator 3 (Q9Y6Q9 whole entry, further chain): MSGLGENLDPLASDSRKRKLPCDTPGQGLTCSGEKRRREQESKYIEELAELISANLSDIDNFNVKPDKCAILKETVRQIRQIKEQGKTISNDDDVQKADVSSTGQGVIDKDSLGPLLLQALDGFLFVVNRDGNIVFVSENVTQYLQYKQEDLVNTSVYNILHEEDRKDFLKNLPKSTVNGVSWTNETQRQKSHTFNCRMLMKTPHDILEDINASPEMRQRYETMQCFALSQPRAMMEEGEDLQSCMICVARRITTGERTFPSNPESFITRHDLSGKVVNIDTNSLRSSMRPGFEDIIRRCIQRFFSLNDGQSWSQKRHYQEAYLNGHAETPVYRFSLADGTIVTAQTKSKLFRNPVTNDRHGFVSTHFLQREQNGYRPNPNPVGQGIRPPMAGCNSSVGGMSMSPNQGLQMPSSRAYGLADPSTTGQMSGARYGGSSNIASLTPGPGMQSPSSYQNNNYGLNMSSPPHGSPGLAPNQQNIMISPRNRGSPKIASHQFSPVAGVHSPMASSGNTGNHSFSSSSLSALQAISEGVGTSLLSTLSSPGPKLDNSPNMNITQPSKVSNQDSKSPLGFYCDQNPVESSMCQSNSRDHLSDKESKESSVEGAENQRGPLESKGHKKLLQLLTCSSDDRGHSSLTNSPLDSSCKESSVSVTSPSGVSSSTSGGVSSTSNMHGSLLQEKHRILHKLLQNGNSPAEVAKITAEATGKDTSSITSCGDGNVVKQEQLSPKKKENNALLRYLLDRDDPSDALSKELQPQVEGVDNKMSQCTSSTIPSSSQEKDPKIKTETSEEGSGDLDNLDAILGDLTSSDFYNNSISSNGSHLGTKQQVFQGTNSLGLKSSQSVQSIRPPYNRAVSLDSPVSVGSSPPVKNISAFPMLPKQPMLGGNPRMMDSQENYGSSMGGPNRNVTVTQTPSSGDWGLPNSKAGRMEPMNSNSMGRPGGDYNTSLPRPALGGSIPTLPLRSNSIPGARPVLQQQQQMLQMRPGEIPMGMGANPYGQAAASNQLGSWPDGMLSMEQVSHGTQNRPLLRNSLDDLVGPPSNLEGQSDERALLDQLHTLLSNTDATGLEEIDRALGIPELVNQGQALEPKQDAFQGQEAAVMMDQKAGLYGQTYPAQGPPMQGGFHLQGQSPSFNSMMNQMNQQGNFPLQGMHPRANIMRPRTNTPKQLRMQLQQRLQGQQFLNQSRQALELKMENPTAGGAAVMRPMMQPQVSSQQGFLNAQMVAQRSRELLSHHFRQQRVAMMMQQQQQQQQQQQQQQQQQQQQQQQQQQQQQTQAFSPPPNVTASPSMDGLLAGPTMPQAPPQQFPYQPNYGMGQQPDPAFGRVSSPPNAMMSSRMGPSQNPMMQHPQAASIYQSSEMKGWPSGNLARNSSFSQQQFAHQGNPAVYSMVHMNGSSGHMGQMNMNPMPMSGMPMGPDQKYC
Sequence of Mitogen-activated protein kinase 10 (P53779 whole entry): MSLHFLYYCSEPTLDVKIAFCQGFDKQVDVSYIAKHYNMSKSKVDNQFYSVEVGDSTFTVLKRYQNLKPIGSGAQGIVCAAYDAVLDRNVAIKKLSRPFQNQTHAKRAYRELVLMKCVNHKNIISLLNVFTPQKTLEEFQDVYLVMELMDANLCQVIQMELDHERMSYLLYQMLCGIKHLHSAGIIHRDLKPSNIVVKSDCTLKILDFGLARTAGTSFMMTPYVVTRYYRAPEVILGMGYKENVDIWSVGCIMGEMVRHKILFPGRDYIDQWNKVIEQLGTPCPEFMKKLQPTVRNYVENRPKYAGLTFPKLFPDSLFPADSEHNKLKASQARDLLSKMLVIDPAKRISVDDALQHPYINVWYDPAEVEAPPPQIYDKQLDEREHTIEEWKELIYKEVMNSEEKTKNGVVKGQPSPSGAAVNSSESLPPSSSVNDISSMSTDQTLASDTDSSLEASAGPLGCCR
Sequence of 14-3-3 protein gamma (P61981 whole entry): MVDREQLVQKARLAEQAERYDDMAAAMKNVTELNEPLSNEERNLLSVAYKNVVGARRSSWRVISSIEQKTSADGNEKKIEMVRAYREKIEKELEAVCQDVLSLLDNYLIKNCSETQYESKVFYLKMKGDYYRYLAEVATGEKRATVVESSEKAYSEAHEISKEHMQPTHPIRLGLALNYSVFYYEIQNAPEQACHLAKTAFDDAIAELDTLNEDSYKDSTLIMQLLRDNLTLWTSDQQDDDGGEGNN

O=C(NNC(=O)c1cc2ccccc2cc1O)c1cccs1
EC50 [1]: 9.37 µM (active) | EC50 [2]: 1.47 µM (active) | EC50 [3]: > 120 µM (not active) | EC50 [4]: < 100 nM (active) | CC50 [5]: > 40 µM (active) | EC50 [6]: 1.87 µM (active) | EC50 [7]: > 150 µM (inactive) | EC50 [8]: > 38 µM (not active)

O=C1c2ccccc2-c2onc3ccc(NCc4ccco4)c1c23
EC50 [9]: 24.3 µM (not active) | AC50 [10]: 7.42 µM (active) | IC50 [11]: 24 µM (not active) | EC50 [12]: < 60 nM (inconclusive) | EC50 [13]: > 79.4 µM (inactive) | EC50 [14]: > 79.4 µM (not active) | AC50 [15]: 1.26 µM (active) | AC50 [16]: 1.2 µM (active) | AC50 [17]: 17.1 µM (active) | EC50 [18]: 173 nM (inconclusive) | IC50 [19]: < 44 µM (inconclusive)

COc1ccc2nc(O)c(-c3nnn(-c4ccccc4)n3)cc2c1
IC50 [20]: > 100 µM (not active) | IC50 [21]: > 100 µM (not active)

COc1ccc2c(c1OC)C(=O)OC2Nc1nc(-c2ccccc2)cs1 (centres undefined)
IC50 [22]: 39.9 µM (inactive) | AC50 [23]: 58.8 µM (active) | AC50 [24]: 17.6 µM (active) | EC50 [25]: 13.6 µM (active) | AC50 [26]: 4.7 µM (active) | IC50 [27]: 697 nM (active) | AC50 [28]: 17.7 µM (active) | CC50 [29]: 9.86 µM (active)

Source: ChEMBL document CHEMBL1201862, “PubChem BioAssay data set” (2004)
